Measurements as given in ChEMBL document CHEMBL3822390, “Synthesis, characterization and anti-cancer activity of a peptide nucleolipid bioconjugate” (2016).

Assays:
Format in all cases: functional
A549 = experiment: Cytotoxicity against human A549 cells assessed as cell mortality at 10 uM after 48 hrs by SRB assay; conditions: A549, 48 h
K562 [1] = experiment: Cytotoxicity against human K562 cells assessed as cell growth at 10 uM after 48 hrs by SRB assay; conditions: K562, 48 h, read-out: Activity
[2] = Cytotoxicity against human MOLT4 cells assessed as cell growth at 10 uM after 48 hrs by SRB assay; conditions: MOLT-4, 48 h, read-out: Activity
[3] = Cytotoxicity against human RPMI8226 cells assessed as cell growth at 10 uM after 48 hrs by SRB assay; conditions: RPMI-8226, 48 h, read-out: Activity
NCI-H522 [4] = experiment: Cytotoxicity against human NCI-H522 cells assessed as cell growth at 10 uM after 48 hrs by SRB assay; conditions: NCI-H522, 48 h, read-out: Activity
[5] = Cytotoxicity against human SNB75 cells assessed as cell growth at 10 uM after 48 hrs by SRB assay; conditions: SNB-75, 48 h, read-out: Activity
Malme-3M [6] = experiment: Cytotoxicity against human MALME-3M cells assessed as cell growth at 10 uM after 48 hrs by SRB assay; conditions: read-out: Activity
[7] = Cytotoxicity against human OVCAR3 cells assessed as cell growth at 10 uM after 48 hrs by SRB assay; conditions: OVCAR-3, 48 h, read-out: Activity
[8] = Cytotoxicity against human OVCAR4 cells assessed as cell growth at 10 uM after 48 hrs by SRB assay; conditions: OVCAR-4, 48 h, read-out: Activity
[9] = Cytotoxicity against human OVCAR5 cells assessed as cell growth at 10 uM after 48 hrs by SRB assay; conditions: OVCAR-5, 48 h, read-out: Activity
[10] = Cytotoxicity against human NCI-ADR-RES cells assessed as cell growth at 10 uM after 48 hrs by SRB assay; conditions: read-out: Activity
[11] = Cytotoxicity against human RXF393 cells assessed as cell growth at 10 uM after 48 hrs by SRB assay; conditions: RXF 393, 48 h, read-out: Activity
[12] = Cytotoxicity against human DU145 cells assessed as cell growth at 10 uM after 48 hrs by SRB assay; conditions: DU-145, 48 h, read-out: Activity
NCI-H226 = experiment: Cytotoxicity against human NCI-H226 cells assessed as cell mortality at 7.25 uM after 48 hrs by SRB assay; conditions: NCI-H226, 48 h
[13] = Cytotoxicity against human SF539 cells assessed as cell growth at 7.25 uM after 48 hrs by SRB assay; conditions: SF-539, 48 h, read-out: Activity
Malme-3M [14] = experiment: Cytotoxicity against human MALME-3M cells assessed as cell growth at 7.25 uM after 48 hrs by SRB assay; conditions: read-out: Activity
SK-MEL-28 [15] = experiment: Cytotoxicity against human SK-MEL-28 cells assessed as cell growth at 7.25 uM after 48 hrs by SRB assay; conditions: SK-MEL-28, 48 h, read-out: Activity
[16] = Cytotoxicity against human OVCAR3 cells assessed as cell growth at 7.25 uM after 48 hrs by SRB assay; conditions: OVCAR-3, 48 h, read-out: Activity
[17] = Cytotoxicity against human NCI-ADR-RES cells assessed as cell growth at 7.25 uM after 48 hrs by SRB assay; conditions: read-out: Activity
A498 = experiment: Cytotoxicity against human A498 cells assessed as cell growth at 7.25 uM after 48 hrs by SRB assay; conditions: A498, 48 h, read-out: Activity
MCF7 = experiment: Cytotoxicity against human MCF7 cells assessed as cell growth at 7.25 uM after 48 hrs by SRB assay; conditions: MCF7, 48 h, read-out: Activity
K562 [18] = experiment: Cytotoxicity against human K562 cells assessed as cell growth at 7.25 uM after 48 hrs by SRB assay; conditions: K562, 48 h, read-out: Activity
SR = experiment: Cytotoxicity against human SR cells assessed as cell growth at 7.25 uM after 48 hrs by SRB assay; conditions: read-out: Activity
NCI-H23 = experiment: Cytotoxicity against human NCI-H23 cells assessed as cell growth at 7.25 uM after 48 hrs by SRB assay; conditions: NCI-H23, 48 h, read-out: Activity
[19] = Cytotoxicity against human SF268 cells assessed as cell growth at 2.13 uM after 48 hrs by SRB assay; conditions: SF-268, 48 h, read-out: Activity
[20] = Cytotoxicity against human LOXIMVI cells assessed as cell growth at 2.13 uM after 48 hrs by SRB assay; conditions: LOX IMVI, read-out: Activity
M14 = experiment: Cytotoxicity against human M14 cells assessed as cell growth at 2.13 uM after 48 hrs by SRB assay; conditions: M14, 48 h, read-out: Activity
MDA-MB-435 = experiment: Cytotoxicity against human MDA-MB-435 cells assessed as cell growth at 2.13 uM after 48 hrs by SRB assay; conditions: MDA-MB-435, 48 h, read-out: Activity
SK-MEL-2 = experiment: Cytotoxicity against human SK-MEL-2 cells assessed as cell growth at 2.13 uM after 48 hrs by SRB assay; conditions: SK-MEL-2, 48 h, read-out: Activity
SK-MEL-28 [21] = experiment: Cytotoxicity against human SK-MEL-28 cells assessed as cell growth at 2.13 uM after 48 hrs by SRB assay; conditions: SK-MEL-28, 48 h, read-out: Activity
SK-MEL-5 = experiment: Cytotoxicity against human SK-MEL-5 cells assessed as cell growth at 2.13 uM after 48 hrs by SRB assay; conditions: SK-MEL-5, 48 h, read-out: Activity
[22] = Cytotoxicity against human UACC257 cells assessed as cell growth at 2.13 uM after 48 hrs by SRB assay; conditions: UACC-257, 48 h, read-out: Activity
[23] = Cytotoxicity against human OVCAR5 cells assessed as cell growth at 2.13 uM after 48 hrs by SRB assay; conditions: OVCAR-5, 48 h, read-out: Activity
[24] = Cytotoxicity against human PC3 cells assessed as cell growth at 2.13 uM after 48 hrs by SRB assay; conditions: PC-3, 48 h, read-out: Activity
T47D = experiment: Cytotoxicity against human T47D cells assessed as cell growth at 2.13 uM after 48 hrs by SRB assay; conditions: read-out: Activity
NCI-H522 [25] = experiment: Cytotoxicity against human NCI-H522 cells assessed as cell mortality at 2.13 uM after 48 hrs by SRB assay; conditions: NCI-H522, 48 h
EKVX = experiment: Cytotoxicity against human EKVX cells assessed as cell growth at 2.13 uM after 48 hrs by SRB assay; conditions: read-out: Activity
[26] = Cytotoxicity against human HOP92 cells assessed as cell growth at 2.13 uM after 48 hrs by SRB assay; conditions: HOP-92, 48 h, read-out: Activity
NCI-H460 = experiment: Cytotoxicity against human NCI-H460 cells assessed as cell growth at 2.13 uM after 48 hrs by SRB assay; conditions: NCI-H460, 48 h, read-out: Activity
[27] = Cytotoxicity against human HCC2998 cells assessed as cell growth at 2.13 uM after 48 hrs by SRB assay; conditions: HCC 2998, 48 h, read-out: Activity

SMILES: CC(C)C[C@H](NC(=O)[C@H](CCCCN)NC(=O)[C@H](C)NC(=O)[C@H](CC(C)C)NC(=O)[C@H](CCCCN)NC(=O)[C@H](CCCCN)NC(=O)[C@H](C)NC(=O)[C@H](CC(C)C)NC(=O)[C@H](CCCCN)NC(=O)[C@H](C)NC(=O)[C@H](CC(C)C)NC(=O)[C@H](CCCCN)NC(=O)[C@@H](N)CC(=O)O)C(=O)N[C@@H](C)C(=O)N[C@@H](CCCCN)C(=O)N[C@@H](C)C(=O)N[C@@H](CCCCN)C(N)=O
- mortality at 10 µM (A549): 19%
- growth at 10 µM (K562 [1]): 99.8%
- growth at 10 µM [2]: 86.4%
- growth at 10 µM [3]: 104%
- growth at 10 µM (NCI-H522 [4]): 86.4%
- growth at 10 µM [5]: 98.8%
- growth at 10 µM (Malme-3M [6]): 107%
- growth at 10 µM [7]: 100%
- growth at 10 µM [8]: 109%
- growth at 10 µM [9]: 98.6%
- growth at 10 µM [10]: 105%
- growth at 10 µM [11]: 110%
- growth at 10 µM [12]: 109%

SMILES: CCCCCCCCCCCCCCCC(=O)NCCCC[C@H](NC(=O)[C@H](C)NC(=O)[C@H](CCCCN)NC(=O)[C@H](C)NC(=O)[C@H](CC(C)C)NC(=O)[C@H](CCCCN)NC(=O)[C@H](C)NC(=O)[C@H](CC(C)C)NC(=O)[C@H](CCCCN)NC(=O)[C@H](CCCCN)NC(=O)[C@H](C)NC(=O)[C@H](CC(C)C)NC(=O)[C@H](CCCCN)NC(=O)[C@H](C)NC(=O)[C@H](CC(C)C)NC(=O)[C@H](CCCCN)NC(=O)[C@@H](N)CC(=O)O)C(N)=O
- mortality at 7.25 µM (NCI-H226): 0%
- growth at 7.25 µM [13]: 102%
- growth at 7.25 µM (Malme-3M [14]): 102%
- growth at 7.25 µM (SK-MEL-28 [15]): 106%
- growth at 7.25 µM [16]: 122%
- growth at 7.25 µM [17]: 111%
- growth at 7.25 µM (A498): 111%
- growth at 7.25 µM (MCF7): 98.7%
- growth at 7.25 µM (K562 [18]): 102%
- growth at 7.25 µM (SR): 91.9%
- growth at 7.25 µM (NCI-H23): 104%

SMILES: CCCCCCCCCCCCCCCCNCCO[C@H]1C[C@H](n2cc(C)c(=O)[nH]c2=O)O[C@@H]1C(=O)NCCCC[C@H](NC(=O)[C@H](C)NC(=O)[C@H](CCCCN)NC(=O)[C@H](C)NC(=O)[C@H](CC(C)C)NC(=O)[C@H](CCCCN)NC(=O)[C@H](C)NC(=O)[C@H](CC(C)C)NC(=O)[C@H](CCCCN)NC(=O)[C@H](CCCCN)NC(=O)[C@H](C)NC(=O)[C@H](CC(C)C)NC(=O)[C@H](CCCCN)NC(=O)[C@H](C)NC(=O)[C@H](CC(C)C)NC(=O)[C@H](CCCCN)NC(=O)[C@@H](N)CC(=O)O)C(N)=O
- growth at 2.13 µM [19]: 100%
- growth at 2.13 µM [20]: 94.6%
- growth at 2.13 µM (M14): 98.5%
- growth at 2.13 µM (MDA-MB-435): 109%
- growth at 2.13 µM (SK-MEL-2): 111%
- growth at 2.13 µM (SK-MEL-28 [21]): 102%
- growth at 2.13 µM (SK-MEL-5): 105%
- growth at 2.13 µM [22]: 75.8%
- growth at 2.13 µM [23]: 105%
- growth at 2.13 µM [24]: 92.3%
- growth at 2.13 µM (T47D): 91.6%
- mortality at 2.13 µM (NCI-H522 [25]): 11%
- growth at 2.13 µM (EKVX): 103%
- growth at 2.13 µM [26]: 86.8%
- growth at 2.13 µM (NCI-H460): 109%
- growth at 2.13 µM [27]: 104%
